From the supplement of paper PMC13380429

How the values were obtained:
Details in all cases: 72 h
[1] = system: Caco-2; test: cell viability relative to DMSO; higher = less toxic
[2] = system: Calu-3; test: as above
[3] = system: HepG2; test: as above
[4] = system: U2OS; test: as above
[5] = system: Vero E6; test: as above
[6] = system: Caco-2; test: relative viability EC50 (midpoint between 100% and the lowest measured viability); higher = less toxic
[7] = system: Calu-3; test: as above
[8] = system: HepG2; test: as above
[9] = system: U2OS; test: as above
[10] = system: Vero E6; test: as above
[11] = system: Caco-2; test: drug sensitivity score (DSS) for viability; higher = more toxic; extreme values may be limits of the assay
[12] = system: Calu-3; test: as above
[13] = system: HepG2; test: as above
[14] = system: U2OS; test: as above
[15] = system: Vero E6; test: as above

Compound | cell viability ([1]; 1 nM) [%] | cell viability ([1]; 10 nM) [%] | cell viability ([1]; 100 nM) [%] | cell viability ([1]; 1000 nM) [%] | cell viability ([1]; 10000 nM) [%] | cell viability ([2]; 1 nM) [%] | cell viability ([2]; 10 nM) [%] | cell viability ([2]; 100 nM) [%] | cell viability ([2]; 1000 nM) [%] | cell viability ([2]; 10000 nM) [%] | cell viability ([3]; 1 nM) [%] | cell viability ([3]; 10 nM) [%] | cell viability ([3]; 100 nM) [%] | cell viability ([3]; 1000 nM) [%] | cell viability ([3]; 10000 nM) [%] | cell viability ([4]; 1 nM) [%] | cell viability ([4]; 10 nM) [%] | cell viability ([4]; 100 nM) [%] | cell viability ([4]; 1000 nM) [%] | cell viability ([4]; 10000 nM) [%] | cell viability ([5]; 1 nM) [%] | cell viability ([5]; 10 nM) [%] | cell viability ([5]; 100 nM) [%] | cell viability ([5]; 1000 nM) [%] | cell viability ([5]; 10000 nM) [%] | relative viability EC50 [6] [nM] | relative viability EC50 [7] [nM] | relative viability EC50 [8] [nM] | relative viability EC50 [9] [nM] | relative viability EC50 [10] [nM] | drug sensitivity score [11] | drug sensitivity score [12] | drug sensitivity score [13] | drug sensitivity score [14] | drug sensitivity score [15]
C=CC(=O)Nc1cc(Nc2nccc(-c3c[nH]c4ccccc34)n2)c(OC)cc1N(C)CCN(C)C [AZ5104] | 89.1 | 87.6 | 81.7 | 62.1 | 24.3 | 82.8 | 56.2 | 32.5 | 33.3 | 17.4 | 98.2 | 94.2 | 84.2 | 64 | 9.2 | 104 | 95.2 | 95.4 | 59.6 | 8.6 | 88.8 | 93.8 | 61.6 | 49.7 | 0.2 | 563 | 9.3 | 1190 | 1130 | 397 | 10.3 | 27.9 | 9.3 | 9.8 | 15.6
COC1CCN(C(=O)c2cc(Cc3n[nH]c(=O)c4ccccc34)ccc2F)CC1 [AZD2461] | 90.3 | 97.5 | 95.5 | 100 | 93.6 | 86.7 | 100 | 79.8 | 69.5 | 92.5 | 99.5 | 86 | 85.5 | 93.8 | 87.2 | 94.4 | 96 | 99.1 | 94.4 | 100 | 99.3 | 97 | 99.7 | 97.9 | 99.9 | > 10000 | > 10000 | > 10000 | > 10000 | > 10000 | 0 | 0 | 3.4 | 0 | 0
COc1ccc(-c2ccc3ncc4c(c3c2)n(-c2ccc(N3CCNCC3)c(C(F)(F)F)c2)c(=O)n4C)cn1 [BGT226] | 88.6 | 69 | 35.8 | 19.3 | 0.6 | 110 | 58.3 | 29.6 | 23.2 | 0 | 110 | 91.5 | 50.8 | 11.5 | -0.3 | 101 | 74.2 | 22.8 | 0.1 | -0.2 | 98 | 93.9 | 52.2 | 22.2 | -0.2 | 39.7 | 32.1 | 107 | 29.3 | 140 | 26.8 | 28.4 | 22.8 | 29.8 | 21
CCNC(C)CN1CCc2c(c(=O)oc3ccccc23)C1 (stereo not given) [CI-923] | 103 | 102 | 103 | 97.9 | 93.6 | 99.5 | 109 | 100 | 111 | 99.1 | 99.6 | 93.1 | 105 | 97.5 | 109 | 99 | 99.3 | 95.9 | 101 | 95.8 | 99.7 | 103 | 104 | 95.9 | 94.5 | > 10000 | > 10000 | > 10000 | > 10000 | > 10000 | 0 | 0 | 0 | 0 | 0
COc1ccc(-c2nc(N3CCOCC3)c3sc(CN(C)c4ncc(C(=O)NO)cn4)cc3n2)cn1 [CUDC-907] | 81.5 | 73.2 | 3.5 | 0.6 | 1 | 85.2 | 65.4 | 14.1 | 5.1 | 3.7 | 90.2 | 39.6 | 0.6 | -0.1 | -0.1 | 90.9 | 34.4 | 0.6 | 0.3 | 0.4 | 103 | 78.2 | 0 | -0.3 | -0.4 | 17.7 | 15.2 | 6.9 | 6 | 16.6 | 33 | 32 | 37.9 | 38.7 | 34
